Source: US11046699B2, “Pyrazolo-pyrimidin-amino-cycloalkyl compounds and their therapeutic uses” (RAPT THERAPEUTICS, INC., priority 2018, dated 2021)
Like-named read-outs stand apart in the source and are kept apart here.

Biological target: GCN2 (Homo sapiens, UniProt Q9P2K8)
Assay: GCN2 enzymatic endpoint assay: phosphorylation of GFP-eIF2α measured by TR-FRET (Lanthascreen)
Type: biochemical
Method in brief: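 Endpoint GCN2 reaction with low ATP (2 μM) and 80 nM GFP-eIF2α, room temperature, 90 minutes. Detection mix with EDTA and Tb-labelled antibody; 520 nm/495 nm emission ratio reported.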

[1] = tested as described in Example 77, compound and/or hydrochloride, dihydrochloride or trifluoroacetic acid salt, read-out: IC 50 Activity
[2] = GCN2 biochemical IC50, 4 nM GCN2, 2 μM ATP, 80 nM GFP-eIF2α, 90 min RT, read-out: GCN2 activity

Sequence of GCN2 (Q9P2K8 whole entry): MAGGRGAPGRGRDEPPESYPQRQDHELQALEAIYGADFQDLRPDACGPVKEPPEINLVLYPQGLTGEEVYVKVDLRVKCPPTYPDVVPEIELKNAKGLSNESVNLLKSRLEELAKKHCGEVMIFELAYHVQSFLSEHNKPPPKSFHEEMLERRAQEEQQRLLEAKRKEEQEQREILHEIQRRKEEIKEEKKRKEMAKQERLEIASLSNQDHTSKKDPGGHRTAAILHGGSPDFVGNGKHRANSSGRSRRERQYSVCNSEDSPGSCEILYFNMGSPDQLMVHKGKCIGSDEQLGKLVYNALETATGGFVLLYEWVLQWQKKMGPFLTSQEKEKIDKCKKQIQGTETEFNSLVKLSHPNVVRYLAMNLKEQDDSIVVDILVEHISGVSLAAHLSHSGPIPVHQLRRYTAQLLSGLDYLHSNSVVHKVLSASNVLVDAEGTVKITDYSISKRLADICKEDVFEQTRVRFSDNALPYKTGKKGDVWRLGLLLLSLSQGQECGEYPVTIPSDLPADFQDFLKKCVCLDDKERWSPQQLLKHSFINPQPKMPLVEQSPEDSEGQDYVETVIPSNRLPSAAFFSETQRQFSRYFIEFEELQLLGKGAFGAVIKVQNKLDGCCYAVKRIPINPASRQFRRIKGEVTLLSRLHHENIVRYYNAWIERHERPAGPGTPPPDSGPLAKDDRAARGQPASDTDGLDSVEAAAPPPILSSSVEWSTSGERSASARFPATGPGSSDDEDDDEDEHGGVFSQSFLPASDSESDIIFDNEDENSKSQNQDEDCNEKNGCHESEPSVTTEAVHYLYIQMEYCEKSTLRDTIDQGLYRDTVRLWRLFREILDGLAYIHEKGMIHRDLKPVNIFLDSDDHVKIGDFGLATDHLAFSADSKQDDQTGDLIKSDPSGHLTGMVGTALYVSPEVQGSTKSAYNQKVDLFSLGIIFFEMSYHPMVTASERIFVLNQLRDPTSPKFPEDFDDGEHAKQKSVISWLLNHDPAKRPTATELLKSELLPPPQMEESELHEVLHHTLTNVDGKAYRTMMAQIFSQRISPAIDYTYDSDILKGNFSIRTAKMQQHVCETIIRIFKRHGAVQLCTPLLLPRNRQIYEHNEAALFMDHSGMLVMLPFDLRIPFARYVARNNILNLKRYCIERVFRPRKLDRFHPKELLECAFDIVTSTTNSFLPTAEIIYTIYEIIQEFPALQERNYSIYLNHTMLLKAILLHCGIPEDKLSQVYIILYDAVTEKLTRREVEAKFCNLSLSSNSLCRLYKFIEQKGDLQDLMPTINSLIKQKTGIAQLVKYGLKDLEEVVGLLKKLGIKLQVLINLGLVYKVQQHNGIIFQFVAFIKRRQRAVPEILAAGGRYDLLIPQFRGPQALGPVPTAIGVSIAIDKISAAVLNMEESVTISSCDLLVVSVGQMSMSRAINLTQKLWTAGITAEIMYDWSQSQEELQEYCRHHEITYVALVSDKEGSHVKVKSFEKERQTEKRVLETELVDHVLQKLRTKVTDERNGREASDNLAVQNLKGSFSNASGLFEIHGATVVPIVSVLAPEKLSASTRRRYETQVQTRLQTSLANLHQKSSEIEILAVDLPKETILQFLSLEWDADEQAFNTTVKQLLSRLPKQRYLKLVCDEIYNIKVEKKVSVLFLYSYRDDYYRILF

Row | Compound | IC50 [1] [nM] | IC50 [2] [nM]
1 | CC(F)(F)CNC(=O)[C@@H]1CC[C@@H](Nc2ncc3c(Br)nn(-c4cc(C#N)c5ncccc5c4)c3n2)C1 [(1R,3R)-3-((3-bromo-1-(8-cyanoquinolin-6-yl)-1H-pyrazolo[3,4-d]pyrimidin-6-yl)amino)-N-(2,2-difluoropropyl)cyclopentane-1-carboxamide] | 25 to 200 | 
2 | CNC(=O)[C@H]1CC[C@@H](Nc2ncc3c(Br)nn(-c4ccc5nc(OC)ccc5c4)c3n2)C1 [(1S,3R)-3-[[3-bromo-1-(2-methoxy-6-quinolyl)pyrazolo[3,4-d]pyrimidin-6-yl]amino]-N-methyl-cyclopentanecarboxamide] | 25 to 200 | 
3 | NCCc1cc(-n2nc(Br)c3cnc(NC4CC(O)C4)nc32)cc2cccnc12 (stereo not shown) [3-[[1-[8-(2-aminoethyl)-6-quinolyl]-3-bromo-pyrazolo[3,4-d]pyrimidin-6-yl]amino] cyclobutanol] | 25 to 200 | 
4 | CS(=O)(=O)N1CC[C@@H](Nc2ncc3c(Br)nn(-c4ccc5ncccc5c4)c3n2)C1 [(R)-3-bromo-N-(1-(methylsulfonyl)pyrrolidin-3-yl)-1-(quinolin-6-yl)-1H-pyrazolo[3,4-d] pyrimidin-6-amine] | 200 to 500 | 
5 | CNC(=O)[C@]1(C)CC[C@@H](Nc2ncc3c(Br)nn(-c4cc(C5CCNC5)c5ncccc5c4)c3n2)C1 (stereo partly drawn) [(1R,3R)-3-[[3-bromo-1-(8-pyrrolidin-3-yl-6-quinolyl)pyrazolo[3,4-d]pyrimidin-6-yl]amino]-N,1-dimethyl-cyclopentane-carboxamide] | < 25 | 
6 | CNC(=O)[C@]1(C)CC[C@@H](Nc2ncc3c(Br)nn(-c4ccc5c(c4)CCN(S(C)(=O)=O)C5)c3n2)C1 [(1R,3R)-3-[[3-bromo-1-(2-methylsulfonyl-3,4-dihydro-1H-isoquinolin-6-yl)pyrazolo [3,4-d]pyrimidin-6-yl]amino]-N,1-dimethyl-cyclopentanecarboxamide] | 25 to 200 | 
7 | Cc1nnc(-c2ccc(-n3nc(Br)c4cnc(N[C@@H]5CC[C@@](C)(N)C5)nc43)cc2CCC#N)s1 | 25 to 200 | 
8 | CNC(=O)[C@]1(C)CC[C@@H](Nc2ncc3c(Br)nn(-c4ccc5nc(CNCCC#N)ccc5c4)c3n2)C1 [(1R,3R)-3-[[3-bromo-1-[2-[(2-cyanoethylamino)methyl]-6-quinolyl]pyrazolo[3,4-d]pyrimidin-6-yl]amino]-N,1-dimethyl-cyclopentane-carboxamide] | 25 to 200 | 
9 | CC1(C(=O)NC2(C#N)CC2)CC[C@@H](Nc2ncc3c(Br)nn(-c4cc(F)c5ncccc5c4)c3n2)C1 (stereo partly drawn) [(3R)-3-[[3-bromo-1-(8-fluoro-6-quinolyl)pyrazolo[3,4-d]pyrimidin-6-yl]amino]-N-(1-cyanocyclopropyl)-1-methyl-cyclopentane-carboxamide] | < 25 | 
10 | CNC(=O)[C@]1(C)CC[C@@H](Nc2ncc3c(Br)nn(-c4ccc(-c5nnc(C(C)(C)N)o5)cc4)c3n2)C1 [Example 47, (1R,3R)-3-((1-(4-(5-(2-aminopropan-2-yl)-1,3,4-oxadiazol-2-yl)phenyl)-3-bromo-1H-pyrazolo[3,4-d]pyrimidin-6-yl)amino)-N,1-dimethylcyclopentane-1-carboxamide; 2,2,2-trifluoroacetic acid] |  | 25 to 200
11 | CNC(=O)[C@]1(C)CC[C@@H](Nc2ncc3c(Br)nn(-c4cccc(NC(=O)c5cnccn5)c4)c3n2)C1 [Example 54, N-(3-(3-bromo-6-(((1R,3R)-3-methyl-3-(methylcarbamoyl)cyclopentyl)amino)-1H-pyrazolo[3,4-d]pyrimidin-1-yl)phenyl)pyrazine-2-carboxamide] |  | 25 to 200
12 | C[C@]1(C(=O)N[C@@H]2CCOC2)C[C@H](Nc2ncc3c(Br)nn(-c4ccc5ncccc5c4)c3n2)C1 | 25 to 200 | 
13 | C[C@]1(C(=O)N2CNC(=O)C2)CC[C@@H](Nc2ncc3c(Br)nn(-c4cc(F)c5ncccc5c4)c3n2)C1 [1-[(1S,3R)-3-[[3-bromo-1-(8-fluoro-6-quinolyl)pyrazolo[3,4-d]pyrimidin-6-yl]amino]-1-methyl-cyclopentanecarbonyl] imidazolidin-4-one] | 25 to 200 | 
14 | CNC(=O)[C@]1(CC(F)F)CC[C@@H](Nc2ncc3c(Br)nn(-c4ccc5ncncc5c4)c3n2)C1 [(1R,3R)-3-[(3-bromo-1-quinazolin-6-yl-pyrazolo[3,4-d]pyrimidin-6-yl)amino]-1-(2,2-difluoroethyl)-N-methyl-cyclopentanecarboxamide] | 25 to 200 | 
15 | Cc1nnc(-c2ccc(-n3nc(Br)c4cnc(N[C@@H]5CC[C@@](C)(C(=O)N6CCP(C)(=O)CC6)C5)nc43)cc2)s1 | 25 to 200 | 
16 | CNC(=O)[C@]1(C)CC[C@@H](Nc2ncc3c(Br)nn(-c4cc(CCC#N)c5ncccc5c4)c3n2)C1 [(1R,3R)-3-[[3-bromo-1-[8-(2-cyanoethyl)-6-quinolyl]pyrazolo[3,4-d]pyrimidin-6-yl]amino]-N,1-dimethyl-cyclopentane-carboxamide] | < 25 | 
17 | COCCNC(=O)[C@H]1C[C@H](Nc2ncc3c(Br)nn(-c4ccc5ncccc5c4)c3n2)C1 [Example 2, (1r,3r)-3-((3-bromo-1-(quinolin-6-yl)-1H-pyrazolo[3,4-d]pyrimidin-6-yl)amino)-N-(2-methoxyethyl)cyclobutane-1-carboxamide] |  | 25 to 200
18 | O=C1CN(C(=O)[C@@H]2CC[C@@H](Nc3ncc4c(Br)nn(-c5cc(C(F)F)c6ncccc6c5)c4n3)C2)CCN1 [4-((1R,3R)-3-((3-bromo-1-(8-(difluoromethyl)quinolin-6-yl)-1H-pyrazolo[3,4-d]pyrimidin-6-yl)amino)cyclopentane-1-carbonyl)piperazin-2-one] | 25 to 200 | 
19 | CNC(=O)C1(C)CC[C@@H](Nc2ncc3c(Br)nn(-c4ccc5[nH]c(=O)cc(C)c5c4)c3n2)C1 (stereo partly drawn) [(3R)-3-[[3-bromo-1-(4-methyl-2-oxo-1H-quinolin-6-yl)pyrazolo[3,4-d]pyrimidin-6-yl]amino]-N,1-dimethyl-cyclopentanecarboxamide] | 25 to 200 | 
20 | N#Cc1cc(-n2nc(Br)c3cnc(N[C@@H]4CC[C@@H](C(=O)N5CCN(C(=O)CO)CC5)C4)nc32)cc2cccnc12 [6-(3-bromo-6-(((1R,3R)-3-(4-(2-hydroxyacetyl)piperazine-1-carbonyl)cyclopentyl)amino)-1H-pyrazolo[3,4-d]pyrimidin-1-yl)quinoline-8-carbonitrile] | 25 to 200 | 
21 | CNC(=O)[C@]1(C)CC[C@@H](Nc2ncc3c(Br)nn(-c4cc(N)c5ncccc5c4)c3n2)C1 [(1R,3R)-3-[[1-(8-amino-6-quinolyl)-3-bromo-pyrazolo[3,4-d]pyrimidin-6-yl]amino]-N,1-dimethyl-cyclopentane-carboxamide] | 25 to 200 | 
22 | COCCNC(=O)[C@@H]1CC[C@@H](Nc2ncc3c(Br)nn(-c4ccc5nc(C)ccc5c4)c3n2)C1 [(1R,3R)-3-((3-bromo-1-(2-methylquinolin-6-yl)-1H-pyrazolo[3,4-d]pyrimidin-6-yl)amino)-N-(2-methoxyethyl)cyclopentane-1-carboxamide] | 200 to 500 | 

The remaining lines, values ahead:

Row | IC50 [1] [nM] | IC50 [2] [nM] | Compound
23 |  | < 25 | Cn1cnc2ccc(-n3nc(Br)c4cnc(N[C@@H]5CC[C@@](C)(O)C5)nc43)cc2c1=O [Example 70, 6-(3-bromo-6-(((1R,3R)-3-hydroxy-3-methylcyclopentyl)amino)-1H-pyrazolo[3,4-d]pyrimidin-1-yl)-3-methylquinazolin-4(3H)-one]
24 | 25 to 200 |  | CNC(=O)[C@]1(C)CC[C@@H](Nc2ncc3c(Br)nn(-c4ccc5c(c4)CN(C(=O)C4CN(C(=O)C(F)(F)F)C4)CC5)c3n2)C1 [(1R,3R)-3-[[3-bromo-1-[2-[1-(2,2,2-trifluoroacetyl)azetidine-3-carbonyl]-3,4-dihydro-1H-isoquinolin-7-yl]pyrazolo[3,4-d]pyrimidin-6-yl]amino]-N,1-dimethyl-cyclopentanecarboxamide]
25 | 25 to 200 |  | CNC(=O)[C@]1(C)CC[C@@H](Nc2ncc3c(Br)nn(-c4cc(CCNC(C)=O)c5ncccc5c4)c3n2)C1 [(1R,3R)-3-[[1-[8-(2-acetamidoethyl)-6-quinolyl]-3-bromo-pyrazolo[3,4-d]pyrimidin-6-yl]amino]-N,1-dimethyl-cyclopentane-carboxamide]
26 | 25 to 200 |  | C[C@]1(NC(=O)[C@@H]2CC[C@@H](Nc3ncc4c(Br)nn(-c5ccc6ncccc6c5)c4n3)C2)C[C@H](O)C1
27 | < 25 |  | CNC(=O)[C@]1(C)CC[C@@H](Nc2ncc3c(I)nn(-c4ccc(-c5nnc(C)o5)cc4)c3n2)C1 [(1R,3R)-3-[[3-iodo-1-[4-(5-methyl-1,3,4-oxadiazol-2-yl)phenyl]pyrazolo[3,4-d]pyrimidin-6-yl]amino]-N,1-dimethyl-cyclopentanecarboxamide]
28 | 25 to 200 |  | CNC(=O)[C@]1(C)CCC(Nc2ncc3c(Br)nn(-c4ccc(C(N)=O)c(Cl)c4)c3n2)C1 (stereo partly drawn) [4-[3-bromo-6-[[(3R)-3-methyl-3-(methylcarbamoyl)cyclopentyl]amino]pyrazolo[3,4-d]pyrimidin-1-yl]-2-chloro-benzamide]
29 | 25 to 200 |  | CNC(=O)[C@]1(CC(F)F)CC[C@@H](Nc2ncc3c(Br)nn(-c4cc(C#N)cc(OCC5CNC5)c4)c3n2)C1 [(1R,3R)-3-[[1-[3-(azetidin-3-ylmethoxy)-5-cyano-phenyl]-3-bromo-pyrazolo[3,4-d]pyrimidin-6-yl]amino]-1-(2,2-difluoroethyl)-N-methyl-cyclopentanecarboxamide]
30 | 25 to 200 |  | CNC(=O)C1(CCS(C)(=O)=O)CC[C@@H](Nc2ncc3c(Br)nn(-c4ccc(-c5nnc(C)s5)cc4)c3n2)C1 (stereo partly drawn) [(3R)-3-[[3-bromo-1-[4-(5-methyl-1,3,4-thiadiazol-2-yl)phenyl]pyrazolo[3,4-d]pyrimidin-6-yl]amino]-N-methyl-1-(2-methylsulfonylethyl)cyclopentane-carboxamide]
31 |  | 25 to 200 | CNC(=O)[C@]1(C)CC[C@@H](Nc2ncc3c(Br)nn(-c4cc(C#N)c5c(c4)CCO5)c3n2)C1 [Example 50, (1R,3R)-3-((3-bromo-1-(7-cyano-2,3-dihydrobenzofuran-5-yl)-lH-pyrazolo[3,4-d]pyrimidin-6-yl)amino)-N,1-dimethylcyclopentane-1-carboxamide; 2,2,2-trifluoroacetic acid]
